The conditions of data set [1]: qualitative, attributed to increased hydrophobicity of the adamantyl substituent.
For data set [2], the target named is T1, HIS-FLAG-tagged LiTryR dimer (Leishmania infantum, UniProt A4HSF7).
T1 construct: made in house; host or cells: E. coli BL21 (DE3) Rossetta 2
As to the kind of experiment: LiTryR dimer quantitation assay (ELISA). Format: biochemical. As to conditions: HIS-FLAG-LiTryR 400 nM, 16 h at 37 °C, Tris pH 8.0, 300 mM NaCl, compounds 25 to 3.1 μM, IC50 ± SE, three independent experiments in triplicate, SEM, read-out: IC50dim, LiTryR dimer quantitation. How it is done:
The relative amount of the LiTryR dimeric form in the presence of the SMPCs was assessed using an enzyme-linked immunosorbent assay (ELISA), developed in our laboratory. Briefly, HIS-FLAG-tagged LiTryR (400 nM) was incubated in dimerization buffer (1 mL of 50 mM Tris pH 8.0 and 300 mM NaCl) for 16 h at 37 °C with vigorous shaking and in a humid atmosphere in the presence of the different compounds ranging from 25 to 3.1 μM. Following a 15 min centrifugation at 18,000× g and room temperature, the supernatants were added to the α-FLAG-coated plates (200 μL/well) and incubated for 30 min at 37 °C with vigorous shaking in a humid atmosphere. The plates were washed five times with TTBS buffer (2 mM Tris pH 7.6, 138 mM NaCl, and 0.1% Tween-20) and incubated with diluted monoclonal α-HIS horseradish peroxidase (HRP)-conjugated antibody (200 μL/well, 1:50,000, Abcam, Cambridge, UK) in fatty acid- and essentially globulin-free bovine serum albumin (5%) prepared in TTBS buffer for 1 h at room temperature. The plates were washed again five times and the o-phenylenediamine dihydrochloride substrate, prepared according to the manufacturer’s instructions, was added (100 μL/well). The enzymatic reactions were stopped after 5 min by addition of […] (100 μL/well) and the absorbances were measured at 490 nm in an EnSpire Multimode Plate Reader (PerkinElmer, Waltham, MA, USA).
For IC50 determinations, the absorbance values in the presence of different concentrations of inhibitor were normalized as a percentage with respect to the absorbance value in the presence of DMSO. The IC50 values were obtained by fitting these percentages to a nonlinear regression model with GraFit 6 software (Erithacus, Horley, Surrey, U.K.). The assays were carried out in triplicate and repeated three times.
On the technique in general: An ELISA detects its analyte on a solid surface through an enzyme-linked reagent.

Data set [3] has as its target T2, Leishmania infantum trypanothione disulfide reductase (LiTryR) (Leishmania infantum, UniProt A4HSF7).
T2 construct: HIS; made in house; host or cells: E. coli BL21 (DE3) Rossetta 2
As to the kind of experiment: LiTryR oxidoreductase activity assay (DTNB-coupled). In kind it is biochemical. As to conditions: modified DTNB-coupled assay, 26 °C, HEPES pH 7.5, HIS-LiTryR 7 nM, TS2 1 μM, NADPH 150 μM, inhibitor 0.1-25 μM, no preincubation; IC50 ± SE, three independent experiments in triplicate; SEM; read-out: IC50act, LiTryR oxidoreductase activity. How it is done:
LiTryR oxidoreductase activity was assessed spectrophotometrically using a modified version of the DTNB-coupled assay, described by Hamilton et al.. Briefly, reactions were performed at 26 °C in 250 μL of HEPES buffer (pH 7.5, 40 mM) containing EDTA (1 mM), NADP^+ (30 μM), DTNB (25 μM), TS2 (1 μM), NADPH (150 μM), glycerol (0.02%), DMSO (1.75%), and recombinant HIS-LiTryR (7 nM). […] Reactions were started by addition of a mixture (50 μL/well) of the substrates (NADPH and TS2).
LiTryR oxidoreductase activity was monitored at 26 °C by an increase in absorbance at 412 nm in an EnSpire Multimode Plate Reader (PerkinElmer, Waltham, MA, USA). In this DTNB-coupled assay, one molecule of T(SH)2 reduces one molecule of DTNB, producing two TNB molecules. The TNB concentration was obtained by multiplying the absorbance values by 100 (50 μM TNB generates 0.5 arbitrary units of absorbance at 412 nm).
For IC50 determinations, the initial velocities were calculated from the slope of the initial linear part of the reaction curves. The initial velocities of the reaction progress curves in the presence of inhibitor (concentrations ranging from 0.1 to 25 μM) were normalized as a percentage with respect to the initial velocity in the presence of the inhibitor vehicle (DMSO). IC50 values were obtained by fitting these percentages to a nonlinear regression model with GraFit 6 software (Erithacus, Horley, Surrey, U.K.). All the assays were performed in triplicate.

The target in data set [4] is T2, Leishmania infantum trypanothione disulfide reductase (LiTryR). As to conditions: earlier work of the authors; cited from earlier work. The source says:
Considering that the biologically functional form of TryR is a homodimer, in 2013, we devised an alternative inhibition strategy aimed at disrupting the protein–protein interactions at the homodimer interface of Leishmania infantum TryR (LiTryR). Thus, by combining molecular modeling and site-directed mutagenesis studies, we identified and validated, for the first time, Glu436 (located at an interfacial α-helix spanning from Pro435 to Met447) as a “hotspot” for LiTryR homodimer stabilization. As a “proof of concept”, we designed and tested a small library of linear peptides [[22] ...

T2 sequence (A4HSF7 entry or part of it): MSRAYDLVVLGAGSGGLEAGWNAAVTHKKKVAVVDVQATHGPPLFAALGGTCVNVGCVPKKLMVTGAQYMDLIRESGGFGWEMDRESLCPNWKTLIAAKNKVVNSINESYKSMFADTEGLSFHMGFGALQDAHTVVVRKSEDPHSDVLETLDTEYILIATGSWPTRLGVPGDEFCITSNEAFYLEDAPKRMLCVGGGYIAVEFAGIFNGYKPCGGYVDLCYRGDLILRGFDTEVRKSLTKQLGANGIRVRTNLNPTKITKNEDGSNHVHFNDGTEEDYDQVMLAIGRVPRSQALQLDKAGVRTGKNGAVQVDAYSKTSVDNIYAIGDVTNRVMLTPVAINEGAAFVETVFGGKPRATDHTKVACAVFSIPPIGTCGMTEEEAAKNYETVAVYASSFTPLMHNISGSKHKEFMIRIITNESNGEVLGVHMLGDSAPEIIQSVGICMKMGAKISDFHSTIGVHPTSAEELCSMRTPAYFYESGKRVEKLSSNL
T1 sequence (A4HSF7 entry or part of it): as above

For `CC[C@H](C)[C@H](NC(=O)CNC(=O)[C@@H](NC(=O)[C@H](CO)NC(=O)[C@H](CCC(N)=O)NC(=O)[C@@H](NC(=O)[C@@H](NC(=O)[C@H](CCCCN)NC(=O)[C@@H]1CCCN1C(=O)COCCOCCNC(=O)CC12CC3CC(CC(C3)C1)C2)[C@@H](C)CC)[C@@H](C)CC)C(C)C)C(N)=O` [1f, Adamantyl-CH2-CO-NH-(CH2)2-O-(CH2)2-O-CH2-CO-NH-PKIIQSVGI-NH2], the solubility entry in data set [1] is on record as “decrease in solubility”. The IC50 in data set [2] turned out to be 8.1 ± 0.2 µM; in data set [3], 7.6 ± 1.2 µM.
With “Ac-PKIIQSVGISMKM-NH2 [TRL35, Nα-acetylated 13-mer peptide, earlier LiTryR dimerization disruptor]”, the “inhibition of the oxidoreductase activity of LiTryR” value in data set [4] is listed as “submicromolar range”.

Source of the values: PMC8308777, “Small Molecule–Peptide Conjugates as Dimerization Inhibitors of Leishmania infantum Trypanothione Disulfide Reductase” (Pharmaceuticals, 2021).
